Legend:
[1] = tested on: murine melanoma (B16FO line); assay: Quantitative study of tumoral fixation and biodistribution of the radiolabeled compound (ex-vivo gamma counting after IV injection); format: in vivo, C57B16 mice; details: for % Elimination/Al / Ratio (g)/Al TU/kidneys / Ratio (g)/Al Tu/Liver / Ratio (g)/Al Tu/Lungs / Ratio (g)/Al Tu/blood / Tumor (g/Al %): Indium-111-radiolabeled, IV
Description: C57B16 mice bearing xenografts of murine melanoma (B16FO line) obtained by subcutaneous injection of 300 000 cells suspended in 100 μl of RPMI culture medium are injected subcutaneously in the back. The experiment is performed when the tumors are palpable. i.e. about 10 days […]. All the experiments (tumoral graft, injection and imaging) are carried out under isoflurane/oxygen (2.5%/2.5%) gas anesthesia.
Injection of 50 to 100 microliters of the radiolabeled solution, with a maximum activity of 20 MBQ, by direct intravenous injection (caudal vein). The activity of the empty syringe after injection+compress is also measured for calculating the actual activity injected (actual Ac injected=Ac normalized full syringe—normalized activity (empty syringe and compress). Normalization consists in calculating the theoretical activity at one and the same time chosen as reference (for example the time of injection). The measurements are performed on a regularly calibrated activity meter for medical use (Medisystem©).
(§1) Scintigraphic imaging is carried out using a dedicated small animal micro-5 imager SPECT-CT (BIOSCAN™). A planar scintigraphic image is obtained immediately after injection to verify absence of intracaudal stasis. If there is stasis, the mouse will be sacrificed at late times (24 or 48 h). Static scintigraphic images may be recorded at 2 h, 4 h, 24 h and 48 h (Imager micro-SPECT-CT BIOSCAN©).
This is done ex-vivo by gamma counting of the various samples, using a gamma well counter for medical use, regularly calibrated for the isotopes used (Tc-99m and In-111). The animals are euthanized according to the protocols allowed by the animal ethics committee at 2 h, 4 h, 24 h or 48 h. The main organs are removed (brain, spleen, kidneys, lungs, heart, alimentary canal, liver) as well as a fragment of skin, muscle, bone and a blood sample and the whole tumor. Each sample is weighed and its gamma activity is counted in a sample-changing well counter for dedicated medical use, calibrated for the radioelements used. The animal's carcass is also weighed after removing the tail; these samples are incinerated and their gamma activity is also measured. The gamma activity of the samples containing all the collected urine and the feces is also measured. The activity of each sample is normalized (relative to the time of injection), and the ratio of the activity of each sample is calculated relative to the total activity injected (=the sum of all of the activities measured except that of the tail), expressed in % per gram of tissue, for calculating the ratio of the activity present in the tumor relative to the main organs (liver, kidneys, lungs and blood). The percentage of the activity eliminated is calculated.
The mean values of all of the data for all of the mice whose data are exploitable are calculated, as well as after eliminating the animals with urinary excretion that is too quick (>50% at 2 h or 75% at 4 h, as well as the mice with tumors >2 g, as the existence of necrosis may distort the calculation of the ratio of fixation in the tumor).
The biodistribution data of the various dendrimer compounds coupled to the IFC01102 ligand (also called amine R) and to a chelating agent are compared with those of the ligand alone coupled to the DOTA chelating agent (compound AP045) and radiolabeled with the same radioelement. 8.5 Results with Compound APAG9-1 (Radiolabeled with Tc99m) The radiochemical purity is above 95%, according to the chromatographic profile obtained as described above (example 5). 12 animals were injected. The average activity injected is 3.5±2.4 MBq. 2 animals were euthanized at 2 h, 4 at 24 h and 48 h post-injection. Examples of planar image immediately post-injection and 2 hours post-injection are illustrated in FIG. 3.

[2] = Lymphatic drainage after intradermal injection in the hind paws (sentinel lymph node characterization, scintigraphy/SPECT); format: in vivo, mouse; details: SPECT 3 h after intradermal injection, indium-111, 10 MBq
Description: as §1, with “performed” for “carried out”, “stasis.” for “stasis. If there is stasis, the mouse will be sacrificed at late times (24 or 48 h).”
Intradermal injection of 1 to 20 microliters of a suspension of radiolabeled dendrimers with a hypodermic syringe in the pad of the hindpaw of a nude mouse. A whole-body planar scintigraphic image of the mouse is obtained 5 minutes after injection to verify absence of passage of the compound through the blood. Acquisition of tomographic images (SPECT) every 30 minutes to monitor the lymphatic drainage of the compound and determine the time of disappearance of the signal in the popliteal lymph node. 9.3.a Injection of Compound X1 Labeled with Tc99m (Generation 2 Molecule)

[3] = 48 post-IV, first series (all animals)
[4] = 48 post-IV, second series (two mice with too quick urinary excretion eliminated)
[5] = 2 h post-iv, first series (all animals)
[6] = 2 h post-iv, second series (two mice with too quick urinary excretion eliminated)
[7] = 4 h post-IV, first series (all animals)
[8] = 4 h post-IV, second series (two mice with too quick urinary excretion eliminated)
[9] = 24 h post-IV, first series (all animals)
[10] = 24 h post-IV, second series (two mice with too quick urinary excretion eliminated)

SMILES: CCN(CC)CCNC(=O)c1cnc2cc(NC(=O)NCCOCCOCCNC(=O)CCOCCOCCOCCOCCNC(=O)CCN(CCC(=O)NCCOCCOCCOCCOCCC(=O)NCCOCCOCCNC(=O)Nc3ccc4nc(C(=O)NCCN(CC)CC)cnc4c3)Cc3cn(CCOCCOCCOCCOCCOCCOCCOCCNC(=O)CN4CCN(CC(=O)O)CCN(CC(=O)O)CCN(CC(=O)O)CC4)nn3)ccc2n1 [AP071]
- % Elimination/Al [1, 3]: 8.5E+01%
- Ratio (g)/Al TU/kidneys [1, 3]: 3.15E−01
- Ratio (g)/Al Tu/Liver [1, 3]: 4.79E−01
- Ratio (g)/Al Tu/Lungs [1, 3]: 2.85E+00
- Ratio (g)/Al Tu/blood [1, 3]: 1.17E+01
- Tumor (g/Al %) [1, 3]: 3.40E−01 g/Al %
- % Elimination/Al [1, 4]: 8.5E+01%
- Ratio (g)/Al TU/kidneys [1, 4]: 3.15E−01
- Ratio (g)/Al Tu/Liver [1, 4]: 4.79E−01
- Ratio (g)/Al Tu/Lungs [1, 4]: 2.86E+00
- Ratio (g)/Al Tu/blood [1, 4]: 1.17E+01
- Tumor (g/Al %) [1, 4]: 3.40E−01 g/Al %
- % Elimination/Al [1, 5]: 6.0E+01%
- Ratio (g)/Al TU/kidneys [1, 5]: 2.41E−02
- Ratio (g)/Al Tu/Liver [1, 5]: 1.38E−01
- Ratio (g)/Al Tu/Lungs [1, 5]: 2.43E−01
- Ratio (g)/Al Tu/blood [1, 5]: 8.69E−01
- Tumor (g/Al %) [1, 5]: 4.42E+00 g/Al %
- % Elimination/Al [1, 6]: 5.1E+01%
- Ratio (g)/Al TU/kidneys [1, 6]: 2.25E−01
- Ratio (g)/Al Tu/Liver [1, 6]: 4.89E−01
- Ratio (g)/Al Tu/Lungs [1, 6]: 9.54E−01
- Ratio (g)/Al Tu/blood [1, 6]: 2.73E+00
- Tumor (g/Al %) [1, 6]: 6.57E+00 g/Al %
- tumoral uptake (in words) ([1]; 4 hours after IV injection, Indium-111): very high
- % Elimination/Al [1, 7]: 7.3E+01%
- Ratio (g)/Al TU/kidneys [1, 7]: 1.12E+00
- Ratio (g)/Al Tu/Liver [1, 7]: 2.09E+00
- Ratio (g)/Al Tu/Lungs [1, 7]: 6.20E+00
- Ratio (g)/Al Tu/blood [1, 7]: 3.92E+01
- Tumor (g/Al %) [1, 7]: 1.62E+01 g/Al %
- % Elimination/Al [1, 8]: 6.9E+01%
- Ratio (g)/Al TU/kidneys [1, 8]: 1.39E+00
- Ratio (g)/Al Tu/Liver [1, 8]: 2.80E+00
- Ratio (g)/Al Tu/Lungs [1, 8]: 8.36E+00
- Ratio (g)/Al Tu/blood [1, 8]: 7.20E+01
- Tumor (g/Al %) [1, 8]: 2.25E+01 g/Al %
- % Elimination/Al [1, 9]: 8.5E+01%
- Ratio (g)/Al TU/kidneys [1, 9]: 4.61E−01
- Ratio (g)/Al Tu/Liver [1, 9]: 6.98E−01
- Ratio (g)/Al Tu/Lungs [1, 9]: 2.88E+00
- Ratio (g)/Al Tu/blood [1, 9]: 9.46E+00
- Tumor (g/Al %) [1, 9]: 3.07E+00 g/Al %
- % Elimination/Al [1, 10]: 8.5E+01%
- Ratio (g)/Al TU/kidneys [1, 10]: 4.61E−01
- Ratio (g)/Al Tu/Liver [1, 10]: 6.98E−01
- Ratio (g)/Al Tu/Lungs [1, 10]: 2.88E+00
- Ratio (g)/Al Tu/blood [1, 10]: 9.46E+00
- Tumor (g/Al %) [1, 10]: 3.07E+00 g/Al %
- tumoral uptake compared with the ligand alone (AP045) ([1]; APAG22-1: at two hours post-IV): far higher

SMILES: COCCOCCOCCOCCOc1cc(C(=O)NCCCCNC(=O)CN2CCN(CC(=O)O)CCN(CC(=O)O)CCN(CC(=O)O)CC2)cc(OCCOCCOCCOCCOC)c1OCCOCCOCCOCCOC [APAG4]
- drainage in the entire lymphatic network as far as the lumbar-aortic stage [2]: clearly visible

Reference: patent US20160221992A1, “DENDRITIC COMPOUNDS INCLUDING A CHELATING, FLUOROCHROME OR RECOGNITION AGENT, COMPOSITIONS INCLUDING SAME AND USES THEREOF” (UNIVERSITE DE STRASBOURG, priority 2013, published 2016)
